The values that follow come from patent US4279887A, “Amides useful as brain imaging agents” (Medi-Physics, Inc., priority 1978, dated 1981).

The nature of series [1]: Bioassay of I-123-labeled compounds: organ distribution of activity 5 minutes after tail vein injection. Format: in vivo, Female Sprague-Dawley rats. The note with it: rat; for Percent Dose in Stomach / Ratio Brain/Blood / Ratio Heart/Blood: 5 min. On the procedure:
Bioassays were performed utilizing compounds from the foregoing examples labeled with I-123 in accordance with the method described in Example 18. Female Sprague-Dawley rats weighing approximately 150 g were anesthetized with sodium pentobarbital and were injected in a tail vein with from 0.05 to 1.0 mCi (in a volume of 0.2 to 0.5 ml) of the I-123-labeled compound. Two specimens were utilized for each test.
The animals were sacrificed at 5 minutes post injection, the tails discarded and the amount of activity in various organs determined. Each organ was counted at a standardized geometry with a thallium iodide-activated sodium iodide crystal scintillation counter adjusted for the 159 keV emission of I-123. The organs were also weighed to one thousandth of a gram and the activity calculated as a percent of administered dose per gram organ weight.
The ratio of brain-to-blood activity was calculated as a percent of administered dose per gram. The important determinations are the amount of activity in the brain and the brain/blood ratio. The amount of activity in the stomach is related to loss of the I-123-label. For comparative purposes, I-123 antipyrine was utilized as a standard.

The conditions of series [2]: I-123 labeled, cited from earlier work.
The mark [3] stands for this setting: in vivo, iv, Percent Dose/g. at 5 min., Blood.
Setting [4] is: in vivo, iv, Percent Dose/g. at 5 min., Brain.
The mark [5] stands for this setting: in vivo, iv, Percent Dose/g. at 5 min., Heart.
Setting [6] is: i.v., stomach activity is related to loss of the I-123 label.
Where [7] appears, read: i.v., ratio of percent dose per gram.

Read-outs that look alike come from different tables or passages of the source.

On to `CNC(=O)c1ccccc1[123I]` [Example 1, N-methyl-o-iodobenzamide], for which, in series [1] (in vivo, iv), the “Percent Dose in Stomach” value is 0.94 Percent Dose, the “Ratio Brain/Blood” value is 1.21 and the “Ratio Heart/Blood” value is given as 1.28. This compound also displayed a tissue uptake at 5 min in series [1] (setting [3]) of 0.86 %ID/g. The tissue uptake at 5 min in series [1] (setting [4]) worked out at 1.04 %ID/g. The compound also showed a tissue uptake at 5 min in series [1] (setting [5]) of 1.1 %ID/g.
For `NC(=O)CNC(=O)c1ccccc1[123I]` [Example 12, o-iodohippuramide], in series [1] (in vivo, iv), the “Percent Dose in Stomach” value is listed as 0.83 Percent Dose, the “Ratio Brain/Blood” value was 1.10 and the “Ratio Heart/Blood” value stood at 1.31. The same compound had a tissue uptake at 5 min in series [1] (setting [3]) of 0.84 %ID/g. This compound also gave a tissue uptake at 5 min in series [1] (setting [4]) of 0.92 %ID/g. This compound came in with a tissue uptake at 5 min in series [1] (setting [5]) of 0.96 %ID/g.
Consider `Cc1cccc(C)c1NC(=O)c1ccccc1[123I]` [Example 7, o-iodobenz-2,6-xylidide], for which, in series [1] (in vivo, iv), the “Percent Dose in Stomach” value is given as 0.82 Percent Dose, the “Ratio Brain/Blood” value is reported as 0.87 and the “Ratio Heart/Blood” value was determined as 1.43. Moreover, the tissue uptake at 5 min in series [1] (setting [3]) was determined as 0.69 %ID/g. Also, the tissue uptake at 5 min in series [1] (setting [4]) worked out at 0.6 %ID/g. The compound also yielded a tissue uptake at 5 min in series [1] (setting [5]) of 0.99 %ID/g.
Turning to `O=C(NNc1ccccc1)c1ccccc1[123I]` [Example 13, o-iodobenzphenylhydrazide], in series [1] (in vivo, iv), the “Percent Dose in Stomach” value worked out at 1.10 Percent Dose. Further, the “Ratio Brain/Blood” value in series [1] (in vivo, iv) stood at 0.20. Also, the “Ratio Heart/Blood” value in series [1] (in vivo, iv) is 0.55. For the same compound, the values for the tissue uptake at 5 min in series [1] (setting [3]), in series [1] (setting [4]) and in series [1] (setting [5]) were 1.99 %ID/g, 0.39 %ID/g and 1.09 %ID/g, respectively.
For the compound `NC(=O)c1ccccc1[123I]` [Example 2, o-iodobenzamide], the “Percent Dose in Stomach” value in series [1] (in vivo, iv) stood at 0.93 Percent Dose. The “Ratio Brain/Blood” value in series [1] (in vivo, iv) is 1.28. In addition, the “Ratio Heart/Blood” value in series [1] (in vivo, iv) was 1.32. For the same compound, the results for the tissue uptake at 5 min in series [1] (setting [3]), in series [1] (setting [4]) and in series [1] (setting [5]) were 0.69 %ID/g, 0.88 %ID/g and 0.91 %ID/g, respectively.
Consider `CCCCCCCCCCCCCCCCCCNC(=O)c1ccccc1[123I]` [Example 5, N-octadecyl-o-iodobenzamide], for which, in series [1] (in vivo, iv), the “Percent Dose in Stomach” value was determined as 0.20 Percent Dose, the “Ratio Brain/Blood” value was found to be 0.10 and the “Ratio Heart/Blood” value came out at 0.92. The compound also registered a tissue uptake at 5 min in series [1] (setting [3]) of 0.91 %ID/g. This compound gave a tissue uptake at 5 min in series [1] (setting [4]) of 0.09 %ID/g. Further, the tissue uptake at 5 min in series [1] (setting [5]) worked out at 0.84 %ID/g.
On to `Cc1c([123I])c(=O)n(-c2ccccc2)n1C` [I^123 -iodoantipyrine, 4-iodoantipyrine], for which the “Percent Dose in Stomach” value in series [1] (setting [6]) worked out at 2.32 Percent Dose. In addition, in series [2] (literature), the “concentration in the brain” value is reported as “suboptimal concentration in the brain” and the in vivo deiodination result is on record as “rapid in vivo deiodination”. For the same compound, in series [2] (prior art agent), the “loss of the iodine label in the brain” value is given as “significant loss of the iodine label in the brain”.
Take `O=C(NCCc1ccccc1)c1ccccc1[123I]` [Example 9, N-phenethyl-o-iodobenzamide]: in series [1] (in vivo, iv), the “Percent Dose in Stomach” value was 0.82 Percent Dose, the “Ratio Brain/Blood” value is 1.28 and the “Ratio Heart/Blood” value came to 1.70. This compound also returned a tissue uptake at 5 min in series [1] (setting [3]) of 0.43 %ID/g. In series [1] (setting [4]), this compound came in with a tissue uptake at 5 min of 0.54 %ID/g. Also, the tissue uptake at 5 min in series [1] (setting [5]) is 0.73 %ID/g.
Take `CCCCCCNC(=O)c1ccccc1[123I]` [Example 3, N-hexyl-o-iodobenzamide]: in series [1] (in vivo, iv), the “Percent Dose in Stomach” value turned out to be 0.86 Percent Dose, the “Ratio Brain/Blood” value was 1.05 and the “Ratio Heart/Blood” value amounted to 1.21. Also, the tissue uptake at 5 min in series [1] (setting [3]) turned out to be 0.56 %ID/g. In series [1] (setting [4]), this compound came in with a tissue uptake at 5 min of 0.59 %ID/g. This compound registered a tissue uptake at 5 min in series [1] (setting [5]) of 1.04 %ID/g.
Turning to `CN(C)C(=O)c1ccccc1[123I]` [Example 10, N, N-dimethyl-o-iodobenzamide], in series [1] (in vivo, iv), the “Percent Dose in Stomach” value is reported as 0.93 Percent Dose, the “Ratio Brain/Blood” value was determined as 0.22 and the “Ratio Heart/Blood” value is on record as 0.72. For the same compound, in series [1] (setting [3]), the tissue uptake at 5 min stood at 2.15 %ID/g. The compound further returned a tissue uptake at 5 min in series [1] (setting [4]) of 0.48 %ID/g. This compound displayed a tissue uptake at 5 min in series [1] (setting [5]) of 1.54 %ID/g.
For `O=C(NCc1ccccc1)c1ccccc1[123I]` [Example 8, N-benzyl-o-iodobenzamide], in series [1] (in vivo, iv), the “Percent Dose in Stomach” value amounted to 0.88 Percent Dose, the “Ratio Brain/Blood” value came to 1.00 and the “Ratio Heart/Blood” value is on record as 2.26. The same compound had a tissue uptake at 5 min in series [1] (setting [3]) of 0.68 %ID/g. This compound yielded a tissue uptake at 5 min in series [1] (setting [4]) of 0.68 %ID/g. In series [1] (setting [5]), this compound gave a tissue uptake at 5 min of 1.54 %ID/g.
Regarding `O=C(Nc1ccccc1)c1ccccc1[123I]` [Example 6, o-iodobenzanilide], in series [1] (setting [7]), the “Ratio Brain/Blood” value amounted to 0.90. For the same compound, the “Ratio Heart/Blood” value in series [1] (setting [7]) was determined as 2.34. Further, the “Percent Dose in Stomach” value in series [1] (setting [6]) turned out to be 1.66 Percent Dose. In addition, the tissue uptake at 5 min in series [1] (in vivo, iv, i.v. tail vein, 5 min post injection, blood, I-123 label, read-out: Percent Dose/g. at 5 min., Blood) was 0.93 %ID/g; in series [1] (in vivo, iv, i.v. tail vein, 5 min post injection, brain, I-123 label, read-out: Percent Dose/g. at 5 min., Brain) it was 0.84 %ID/g; in series [1] (in vivo, iv, i.v. tail vein, 5 min post injection, heart, I-123 label, read-out: Percent Dose/g. at 5 min., Heart), 2.18 %ID/g.
On to `O=C(NO)c1ccccc1[123I]` [Example 14, o-iodobenzohydramic acid], for which, in series [1] (in vivo, iv), the “Percent Dose in Stomach” value was 0.96 Percent Dose, the “Ratio Brain/Blood” value was 0.57 and the “Ratio Heart/Blood” value is listed as 0.99. Further, the tissue uptake at 5 min in series [1] (setting [3]) came out at 0.95 %ID/g. The compound also yielded a tissue uptake at 5 min in series [1] (setting [4]) of 0.54 %ID/g. This compound gave a tissue uptake at 5 min in series [1] (setting [5]) of 0.94 %ID/g.
